From patent US9635855B2, “Polyelectrolyte complexes for biocide enhancement” (priority 2012, dated 2017)

Tested on: Botrytis cinerea
Experiment: Botrytis cinerea fruit rot on wounded apple, post-harvest spray (Example 2)
Type: in vivo

C[C@@H]1C/C=C/C=C/C=C/C=C/[C@H](O[C@@H]2O[C@H](C)[C@@H](O)[C@H](N)[C@@H]2O)C[C@@H]2O[C@](O)(C[C@@H](O)C[C@H]3O[C@@H]3/C=C/C(=O)O1)C[C@H](O)[C@H]2C(=O)O [natamycin]
Rot on apples, comparison in words (five and six days after inoculation): clearly lower | Botrytis fruit rot symptoms (in words) (two days after inoculation): did not show any symptoms
